For 5 molecules, melting point results are on record in patent US7767677B2, “Heterocyclic derivatives and their use as stearoyl-CoA desaturase inhibitors” (Xenon Pharmaceuticals Inc., priority 2004, dated 2010).

Structures are written as SMILES.

`CCc1nc(-c2ccc(N3CCN(C(=O)c4ccccc4C(F)(F)F)CC3)nn2)no1` [Example 4, {4-[6-(5-ethyl-[1,2,4]oxadiazol-3-yl)pyridazin-3-yl]piperazin-1-yl}-(2-trifluoromethylphenyl)methanone] registered a melting point of 204 °C. Next, `CCCCc1nc(-c2ccc(N3CCN(C(=O)c4ccccc4C(F)(F)F)CC3)nn2)no1` [Example 4.1, {4-[6-(5-butyl[1,2,4]oxadiazol-3-yl)pyridazin-3-yl]piperazin-1-yl}-(2-trifluoromethylphenyl)methanone]: 175 °C.

Consider `CCCc1noc(-c2ccc(N3CCN(C(=O)c4ccccc4C(F)(F)F)CC3)nn2)n1` [Example 7, {4-[6-(3-propyl[1,2,4]oxadiazol-5-yl)pyridazin-3-YL]piperazin-1-yl}-(2-trifluoromethylphenyl)methanone], for which the melting point came out at 226 °C. `CCCCCc1noc(-c2ccc(N3CCN(C(=O)c4ccccc4C(F)(F)F)CC3)nn2)n1` [Example 7.1, {4-[6-(3-pentyl[1,2,4]oxadiazol-5-yl)pyridazin-3-yl]piperazin-1-yl}-(2-trifluoromethylphenyl)methanone] displayed a melting point of 164 °C.

As for `O=C(c1cc(F)ccc1C(F)(F)F)N1CCN(c2ccc(-c3ncc(-c4ccccc4)o3)nn2)CC1` [Example 12, (5-fluoro-2-trifluoromethylphenyl)-{4-[6-(5-phenyloxazol-2-yl)pyridazin-3-yl]piperazin-1-yl}methanone], the melting point lay within 122 to 125 °C.

As a reminder, the melting point is the temperature, or range, at which the solid turns liquid.
